One assay has as its system Hep3B cells (hepatocellular carcinoma cell line). The experiment in a line: In vitro MTS cell viability assay (NCI-60 methodology), Hep3B. It counts as cell-based. The conditions noted are these: Homo sapiens, 48 h, Table 8, MTS, 2 days drug incubation, 50% reduction vs time zero, read-out: Hep3B LC50. A digest of the protocol: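 Hep3B cells given five 2-fold dilutions of compound for 2 days, with viability by MTS measured at time zero and at end. LC50 is the concentration giving a 50% fall in viable cells relative to the start of treatment, per NCI-60 formula.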
Broadly, the LC50 is the concentration that kills 50% of the test population. With `CC(C)(C)C(=O)N1CC[C@H](n2ncc3c(NC(=O)c4ccc([N+](=O)[O-])s4)nc(-c4ccc(F)nc4)nc32)C1` [Compound 8-4, (S)—N-(6-(6-fluoropyridin-3-yl)-1-(1-pivaloylpyrrolidin-3-yl)-1H-pyrazolo[3,4-d]pyrimidin-4-yl)-5-nitrothiophene-2-carboxamide], the LC50 came to 1490 nM.

In the case of `CCOC(=O)N1CCC(n2ncc3c(NC(=O)c4ccc([N+](=O)[O-])s4)nc(-c4ccc(F)nc4)nc32)C1` [Compound 8-5, ethyl (S)-3-(6-(6-fluoropyridin-3-yl)-4-(5-nitrothiophene-2-carboxamide)-1H-pyrazolo[3,4-d]pyrimidin-1-yl)pyrrolidine-1-carboxylate], the 50% lethal concentration (LC50) was above 2000 nM.

As to `CCOC(=O)N1CC[C@@H](n2ncc3c(NC(=O)c4ccc([N+](=O)[O-])s4)nc(-c4ccc(F)nc4)nc32)C1` [Compound 8-6, ethyl (R)-3-(6-(6-fluoropyridin-3-yl)-4-(5-nitrothiophene-2-carboxamido)-1H-pyrazolo[3,4-d]pyrimidin-1-yl)pyrrolidine-1-carboxylate], the LC50 was above 2000 nM.

`CC(C)(C)OC(=O)N1CC[C@H](n2ncc3c(NC(=O)c4ccc([N+](=O)[O-])s4)nc(-c4ccc(F)nc4)nc32)C1` [Compound 8-7, tert-butyl (S)-3-(6-(6-fluoropyridin-3-yl)4-(5-nitrothiophene-2-carboxamido)-1H-pyrazolo[3,4-d]pyrimidin-1-yl)pyrrolidine-1-carboxylate]: the LC50 amounted to 1490 nM.

On to `O=C(Nc1nc(-c2ccc(F)nc2)nc2c1cnn2C1CCCC1)c1ccc([N+](=O)[O-])s1` [Compound 8-8, N-(1-cyclopentyl-6-(6-fluoropyridin-3-yl)-1H-pyrazolo[3,4-d]pyrimidin-4-yl)-5-nitrothiophene-2-carboxamide], for which the median lethal concentration (LC50) is 1170 nM.

As to `O=C(Nc1nc(-c2ccc(Cl)cc2)nc2c1cnn2C1CCCC1)c1ccc([N+](=O)[O-])s1` [Compound 8-9, N-(6-(4-chlorophenyl)-1-cyclopentyl-1H-pyrazolo[3,4-d]pyrimidin-4-yl)-5-nitrothiophene-2-carboxamide], the LC50 is 940 nM.

Turning to `O=C(Nc1nc(-c2ccc(F)cc2)nc2c1cnn2C1CCCCCC1)c1ccc([N+](=O)[O-])s1` [Compound 8-10, N-(1-cycloheptyl-6-(4-fluorophenyl)-1H-pyrazolo[3,4-d]pyrimidin-4-yl)-5-nitrothiophene-2-carboxamide], the LC50 is 830 nM.

For `COC(=O)c1ccc(-c2nc(NC(=O)c3ccc([N+](=O)[O-])s3)c3cnn(C4CCCCCC4)c3n2)cc1` [Compound 8-12, methyl 4-(1-cycloheptyl-4-(5-nitrothiophene-2-carboxamido)-1H-pyrazolo[3,4-d]pyrimidin-6-yl)benzoate], the median lethal concentration (LC50) stood at 470 nM.

With `C[C@@H]1C[C@@H](n2ncc3c(NC(=O)c4ccc([N+](=O)[O-])s4)nc(-c4ccc(F)cc4)nc32)CC(C)(C)C1` [Compound 8-13, N-(6-(4-fluorophenyl)-1-((1R,5S)-3,3,5-trimethylcyclohexyl)-1H-pyrazolo[3,4-d]pyrimidin-4-yl)-5-nitrothiophene-2-carboxamide], the median lethal concentration (LC50) is 900 nM.

Take `C[C@@H]1C[C@@H](n2ncc3c(NC(=O)c4ccc([N+](=O)[O-])s4)nc(-c4ccc(F)nc4)nc32)CC(C)(C)C1` [Compound 8-14, N-(6-(6-fluoropyridin-3-yl)-1-((1R,5S)-3,3,5-trimethylcyclohexyl)-1H-pyrazolo[3,4-d]pyrimidin-4-yl)-5-nitrothiophene-2-carboxamide]: the 50% lethal concentration (LC50) was determined as 620 nM.

Turning to `C[C@@H]1C[C@@H](n2ncc3c(NC(=O)c4ccc([N+](=O)[O-])s4)nc(-c4ccc(Cl)cc4)nc32)CC(C)(C)C1` [Compound 8-15, N-(6-(4-chlorophenyl)-1-((1R,5S)-3,3,5-trimethylcyclohexyl)-1H-pyrazolo[3,4-d]pyrimidin-4-yl)-5-nitrothiophene-2-carboxamide], the LC50 amounted to 1270 nM.

Turning to `C[C@@H]1C[C@@H](n2ncc3c(NC(=O)c4ccc([N+](=O)[O-])s4)nc(-c4ccc(Cl)nc4)nc32)CC(C)(C)C1` [Compound 8-16, N-(6-(6-chloropyridin-3-yl)-1-((1R,5S)-3,3,5-trimethylcyclohexyl)-1H-pyrazolo[3,4-d]pyrimidin-4-yl)-5-nitrothiophene-2-carboxamide], the LC50 was found to be 590 nM.

Staying with this assay, now noted: Homo sapiens, 48 h, Table 9, MTS, 2 days drug incubation, 50% reduction vs time zero, read-out: Hep3B LC50.
In the case of `CC(C)N1CCC(n2ncc3c(NC(=O)c4ccc([N+](=O)[O-])s4)nc(-c4ccc(F)nc4)nc32)CC1` [Compound 9-1], the LC50 was 1250 nM.

Regarding `CCOC(=O)N1CCC(n2ncc3c(NC(=O)c4ccc([N+](=O)[O-])s4)nc(-c4ccc(F)nc4)nc32)CC1` [Compound 9-2, ethyl 4-(6-(6-fluoropyridin-3-yl)-4-(5-nitrothiophene-2-carboxamide)-1H-pyrazolo [3,4-d]pyrimidin-1-yl)piperidine-1-carboxylate], the median lethal concentration (LC50) is above 5000 nM.

In the case of `CC(C)(C)OC(=O)N1CCC(n2ncc3c(NC(=O)c4ccc([N+](=O)[O-])s4)nc(-c4ccc(F)nc4)nc32)CC1` [Compound 9-4, tert-butyl 4-(6-(6-fluoropyridin-3-yl)-4-(5-nitrothiophene-2-carboxamido)-1H-pyrazolo[3,4-d]pyrimidin-1-yl)piperidine-1-carboxylate], the median lethal concentration (LC50) came to 930 nM.

As for `C=CC(=O)N1CCC(n2ncc3c(NC(=O)c4ccc([N+](=O)[O-])s4)nc(-c4ccc(F)nc4)nc32)CC1` [Compound 9-6], the LC50 was 1250 nM.

In the case of `CCCC(=O)N1CCC(n2ncc3c(NC(=O)c4ccc([N+](=O)[O-])s4)nc(-c4ccc(F)nc4)nc32)CC1` [Compound 9-7, N-(1-(1-butyrylpiperidin-4-yl)-6-(6-fluoropyridin-3-yl)-1H-pyrazolo[3,4-d]pyrimidin-4-yl)-5-nitrothiophene-2-carboxamide], the LC50 is above 5000 nM.

`CC(C)(C)C(=O)N1CCC(n2ncc3c(NC(=O)c4ccc([N+](=O)[O-])s4)nc(-c4ccc(F)nc4)nc32)CC1` [Compound 9-8, N-(6-(6-fluoropyridin-3-yl)-1-(1-pivaloylpiperidin-4-yl)-1H-pyrazolo[3,4,d]pyrimidin-4-yl)-5-nitrothiophene-2-carboxamide]: the LC50 amounted to 1900 nM.

With `O=C(Nc1nc(-c2ccc(Cl)cc2)nc2c1cnn2C1CCN(C(=O)OCCCC(F)(F)F)CC1)c1ccc([N+](=O)[O-])s1` [Compound 9-9], the LC50 came to 1070 nM.

As for `CCOCCOCCOC(=O)N1CCC(n2ncc3c(NC(=O)c4ccc([N+](=O)[O-])s4)nc(-c4cccs4)nc32)CC1` [Compound 9-10, 2-(2-ethoxyethoxy)ethyl 4-(4-(5-nitrothiophene-2-carboxamido)-6-(thiophen-2-yl)-1H-pyrazolo[3,4-d]pyrimidin-1-yl)piperidine-1-carboxylate], the LC50 was above 3000 nM.

In the case of `CCOCCOCCOC(=O)N1CCC(n2ncc3c(NC(=O)c4ccc([N+](=O)[O-])s4)nc(-c4ccc(Cl)cc4)nc32)CC1` [Compound 9-11, 2-(2-ethoxyethoxy)ethyl 4-(6-(4-chlorophenyl)-4-(5-nitrothiophene-2-carboxamido)-1H-pyrazolo[3,4-d]pyrimidin-1-yl)piperidine-1-carboxylate], the LC50 is above 1250 nM.

Take `COCCOC(=O)N1CCC(n2ncc3c(NC(=O)c4ccc([N+](=O)[O-])s4)nc(-c4ccc(Cl)cc4)nc32)CC1` [Compound 9-12, 2-methoxyethyl 4-(6-(4-chlorophenyl)4-(5-nitrothiophene-2-carboxamido)-1H-pyrazolo[3,4-d]pyrimidin-1-yl)piperidine-1-carboxylate]: the LC50 is 1860 nM.

For `CCOCCOC(=O)N1CCC(n2ncc3c(NC(=O)c4ccc([N+](=O)[O-])s4)nc(-c4ccc(Cl)cc4)nc32)CC1` [Compound 9-13, 2-ethoxyethyl 4-(6-(4-chlorophenyl)-4-(5-nitrothiophene-2-carboxamido)-1H-pyrazolo [3,4-d]pyrimidin-1-yl)piperidine-1-carboxylate], the median lethal concentration (LC50) amounted to 1620 nM.

Staying with this assay, now noted: Homo sapiens, 48 h, Table 10, MTS, 2 days drug incubation, 50% reduction vs time zero, read-out: Hep3B LC50.
As to `O=C(Nc1nc(N2CCC(F)(F)C2)nc2c1cnn2C1CCCCC1)c1ccc([N+](=O)[O-])s1` [Compound 10-1, N-(1-cyclohexyl-6-(3,3-difluoropyrrolidin-1-yl)-1H-pyrazolo[3,4-d]pyrimidin-4-yl)-5-nitrothiophene-2-carboxamide], the 50% lethal concentration (LC50) was 1250 nM.

On to `O=C(Nc1nc(N2CCC(F)(F)CC2)nc2c1cnn2C1CCCCC1)c1ccc([N+](=O)[O-])s1` [Compound 10-2, N-(1-cyclohexyl-6-(4,4-difluoropiperidin-1-yl)-1H-pyrazolo[3,4-d]pyrimidin-4-yl)-5-nitrothiophene-2-carboxamide], for which the 50% lethal concentration (LC50) stood at 3120 nM.

Turning to `O=C(Nc1nc(N2CCC[C@H]2CO)nc2c1cnn2C1CCCCC1)c1ccc([N+](=O)[O-])s1` [Compound 10-3, (S)—N-(1-cyclohexyl-6-(2-(hydroxymethyl)pyrrolidin-1-yl)-1H-pyrazolo[3,4-d]pyrimidin-4-yl)-5-nitrothiophene-2-carboxamide], the LC50 was above 5000 nM.

As to `O=C(Nc1nc(-c2ccco2)nc2c1cnn2C1CCCCC1)c1ccc([N+](=O)[O-])s1` [Compound 10-4, N-(1-cyclohexyl-6-(furan-2-yl)-1H-pyrazolo[3,4-d]pyrimidin-4-yl)-5-nitrothiophene-2-carboxamide], the LC50 came to 1190 nM.

Turning to `O=C(Nc1nc(-c2cccs2)nc2c1cnn2C1CCCCC1)c1ccc([N+](=O)[O-])s1` [Compound 10-5, N-(1-cyclohexyl-6-(thiophen-2-yl)-1H-pyrazolo[3,4-d]pyrimidin-4-yl)-5-nitrothiophene-2-carboxamide], the LC50 was found to be 750 nM.

`O=C(Nc1nc(-c2ccsc2)nc2c1cnn2C1CCCCC1)c1ccc([N+](=O)[O-])s1` [Compound 10-6, N-(1-cyclohexyl-6-(thiophen-3-yl)-1H-pyrazolo[3,4-d]pyrimidin-4-yl)-5-nitrothiophene-2-carboxamide]: the LC50 came out at 1030 nM.

These data come from US20240150356A1, “Pyrimidine amide compounds and use thereof” (ALPHALA CO., LTD., priority 2019, published 2024).
